This is an account of results in patent US20230416329A1, “A PEPTIDE WITH DISULFIDE BONDS AND INHIBITORY ACTIVITY AGAINST SERINE PROTEASES, DERIVED HYBRID PEPTIDES THEREOF, AND USES THEREOF” (INSTITUTE OF MATERIA MEDICA , CHINESE ACADEMY OF MEDICAL …, priority 2020, published 2023).

For the test, the target named is T1, bovine trypsin (Bos taurus, UniProt P00760).
T1 sequence (P00760 24-246): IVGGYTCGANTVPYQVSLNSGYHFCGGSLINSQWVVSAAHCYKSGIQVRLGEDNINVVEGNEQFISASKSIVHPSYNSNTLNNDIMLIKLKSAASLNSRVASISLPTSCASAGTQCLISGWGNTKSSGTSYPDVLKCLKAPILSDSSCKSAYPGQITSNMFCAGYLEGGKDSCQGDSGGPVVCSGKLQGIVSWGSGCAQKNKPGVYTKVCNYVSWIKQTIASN
Put plainly: Trypsin inhibitory activity of peptides (BApNA hydrolysis, OD405; IC50, Ki, residual activity). Format: biochemical. The following applies: for IC50: trypsin 50 nM, BApNA 1.22 mM, read-out: IC50; for Ki: Ki=IC50/(1+S/Km), Km 0.33 mM, read-out: Ki. The method in brief:
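Trypsin (50 nM final) preincubated with peptides at 37 °C in 50 mM Tris-HCl pH 7.8, 20 mM CaCl2; BApNA added (1.22 mM final), 260 min at 37 °C, then OD405 read. Residual activity from enzyme-only and substrate-only controls; IC50 fitted and converted to Ki via Ki=IC50/(1+S/Km), Km measured separately for BApNA.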

Like-named read-outs stand apart in the source and are kept apart here. Bridge positions count the residues as written; N and C are the ends. Square brackets hold non-standard residues; d marks the D form. Peptide text beside a SMILES is read from it. Hyp = O=C(O)[C@@H]1C[C@@H](O)CN1

As usually defined, the IC50 is the concentration at which inhibition is half-maximal. Regarding `CC[C@H](C)[C@@H]1NC(=O)[C@H](CCCCN)NC(=O)[C@@H]2CCCN2C(=O)[C@H](C)NC(=O)[C@H](CCCNC(=N)N)NC(=O)CNC(=O)[C@@H](N)CSSC[C@@H](C(=O)N[C@@H](Cc2ccccc2)C(=O)O)NC(=O)[C@H](CCCNC(=N)N)NC(=O)[C@H](CCC(N)=O)NC(=O)[C@H](CC(C)C)NC1=O` [BT44] (H-CGRAPKILQRCF-OH; disulfide 1-11 (inferred); N-terminus and C-terminus assumed), the IC50 is over 50000 nM.
`CC[C@H](C)[C@@H]1NC(=O)[C@@H]2CCCN2C(=O)[C@@H]2CCCN2C(=O)[C@H]([C@@H](C)CC)NC(=O)[C@H](CO)NC(=O)[C@H](CCCCN)NC(=O)[C@H]([C@@H](C)O)NC(=O)[C@@H](NC(=O)[C@@H](N)CCCNC(=N)N)CSSC[C@@H](C(=O)N[C@@H](Cc2ccccc2)C(=O)O)NC1=O` [BT45] (H-RCTKSIPPICF-OH; disulfide 2-10; C-terminus assumed): the IC50 amounted to 30 nM. Under “peptide 0.000098 μM”, the Residual trypsin activity is recorded as 99.3 ± 5.3%. For the same compound, where the note is “peptide 0.00098 μM”, the Residual trypsin activity stood at 104.3 ± 6.0%. The Residual trypsin activity (peptide 0.0098 μM) was found to be 100.7 ± 5.0%. Also, the Residual trypsin activity (peptide 0.02439 μM) turned out to be 67.4 ± 2.6%. Besides, the Residual trypsin activity (peptide 0.0390 μM) amounted to 42.7 ± 2.9%. For the same compound, the Residual trypsin activity (peptide 0.0488 μM) is recorded as 27.3 ± 5.5%. The Residual trypsin activity (peptide 0.07317 μM) is 10.8 ± 1.6%. Besides, where the note is “peptide 0.098 μM”, the Residual trypsin activity is given as 6.3 ± 0.4%. In addition, for the setting “peptide 0.98 μM”, the Residual trypsin activity was determined as 0.4 ± 0.0%. The Residual trypsin activity (peptide 9.76 μM) stood at 0.0 ± 0.0%.
As usually defined, the Ki is a dissociation constant, usually derived from enzyme kinetics or from competition with a known ligand. Take `CC[C@H](C)[C@@H]1NC(=O)[C@@H]2CCCN2C(=O)[C@@H]2CCCN2C(=O)[C@H]([C@@H](C)CC)NC(=O)[C@H](CO)NC(=O)[C@H](CCCCN)NC(=O)[C@H]([C@@H](C)O)NC(=O)[C@H](C)NC(=O)[C@H](CCCNC(=N)N)NC(=O)[C@@H]2C[C@@H](O)CN2C(=O)[C@@H](N)CSSC[C@@H](C(=O)N[C@@H](Cc2ccccc2)C(=O)O)NC1=O` [BT46] (H-C[Hyp]RATKSIPPICF-OH; disulfide 1-12; C-terminus assumed): the “inhibitory activity against trypsin (in words)” value (“inhibitory activity” below) was “excellent trypsin inhibitory activities”, the Ki came out at 10 nM and the IC50 came out at 70 nM.
On to `CC[C@H](C)[C@@H]1NC(=O)[C@@H]2CCCN2C(=O)[C@@H]2CCCN2C(=O)[C@H]([C@@H](C)CC)NC(=O)[C@H](CO)NC(=O)[C@H](CCCCN)NC(=O)[C@H]([C@@H](C)O)NC(=O)[C@H](CO)NC(=O)[C@H](CCCNC(=N)N)NC(=O)CNC(=O)[C@@H](N)CSSC[C@@H](C(=O)N[C@@H](Cc2ccccc2)C(=O)O)NC1=O` [BT47] (H-CGRSTKSIPPICF-OH; disulfide 1-12; C-terminus assumed), for which the “inhibitory activity” value is on record as “good inhibitory activities against trypsin”, the Ki was found to be 10 nM and the IC50 was found to be 50 nM. For the same compound, the “inhibitory activity” value (listed as SEQ ID NO: 47) was “excellent trypsin inhibitory activities”. Also, the Residual trypsin activity (peptide 0.000098 μM) was 103.0 ± 5.2%. Further, under “peptide 0.00098 μM”, the Residual trypsin activity stood at 105.1 ± 3.6%. Besides, the Residual trypsin activity (peptide 0.0098 μM) is 107.9 ± 5.8%. The Residual trypsin activity (peptide 0.0488 μM) is recorded as 57.4 ± 1.1%. Also, the Residual trypsin activity (peptide 0.0780 μM) worked out at 39.0 ± 3.8%. Besides, the Residual trypsin activity (peptide 0.098 μM) is given as 5.6 ± 0.7%. The Residual trypsin activity (peptide 0.98 μM) came to 0.2 ± 0.0%. Where the note is “peptide 9.76 μM”, the Residual trypsin activity was found to be 0.0 ± 0.1%. For the same compound, where the note is “peptide 97.56 μM”, the Residual trypsin activity is reported as 0.1 ± 0.0%.
On to `CC[C@H](C)[C@@H]1NC(=O)[C@@H]2CCCN2C(=O)[C@@H]2CCCN2C(=O)[C@H]([C@@H](C)CC)NC(=O)[C@H](CO)NC(=O)[C@H](CCCCN)NC(=O)[C@H]([C@@H](C)O)NC(=O)[C@H](CC(C)C)NC(=O)[C@H](CCCNC(=N)N)NC(=O)CNC(=O)[C@@H](N)CSSC[C@@H](C(=O)N[C@@H](Cc2ccccc2)C(=O)O)NC1=O` [BT48] (H-CGRLTKSIPPICF-OH; disulfide 1-12; N-terminus and C-terminus assumed), for which the Ki was determined as 40 nM.
